Experimental data as given in ChEMBL document CHEMBL3885861, “Open TG-GATES”.
Counter-ions that a name gives are not always drawn.

Organism: Rattus norvegicus
Assay: Open TG-GATES - Regimen: Single
Type: toxicity, organism-based, Sprague-Dawley
Design: regimen Single, gender Male, age 6 weeks
Conditions: in vivo, ip, 800 mg/kg, route intraperitoneal injection, dose level High; for APTT / Bas / Eos / Fbg / Hb / Ht / Lym / MCH / MCHC / MCV / Mono / Neu / PT / Plat / RBC / Ret / WBC: tissue Blood; for KIDNEY_L / KIDNEY_R / KIDNEY_TOTAL: tissue Kidney; for LIVER: tissue Liver; for A/G / ALP / ALT / AST / BUN / CRE / Ca / Cl / DBIL / GLC / IP / K / LDH / Na / PL / RALB / TBIL / TC / TG / TP / gamma-GTP: tissue Plasma

In the case of `CCOC(=O)/C=C\C(=O)OCC` [DIETHYL MALEATE], the TERMINAL_BW (3 h) was 200.3 g, the APTT (3 h) was 17 s and the Bas (3 h) was 0%. It also gave an Eos (3 h) of 1.4%, a Fbg (3 h) of 195.6 mg/dL and a Hb (3 h) of 14.1 g/dL. It also gave a Ht (3 h) of 42.3%, a Lym (3 h) of 62.4% and an MCH (3 h) of 21.3 pg. For the same compound, the MCHC (3 h) was 33.4%, the MCV (3 h) was 63.9 fL and the Mono (3 h) was 7.8%. For the same compound, the Neu (3 h) was 28.4%, the PT (3 h) was 13.2 s and the Plat (3 h) was 123.8 x10_4/uL. For the same compound, the RBC (3 h) was 662.6 x10_4/ul, the Ret (3 h) was 9.9% and the WBC (3 h) was 59.8 x10_2/uL. For the same compound, the KIDNEY_L (3 h) was 0.9 g, the KIDNEY_R (3 h) was 0.9 g and the KIDNEY_TOTAL (3 h) was 1.8 g. The LIVER (3 h) was 7.9 g, the A/G (3 h) was 1.7 and the ALP (3 h) was 764.4 IU/L. The ALT (3 h) was 48.8 IU/L, the AST (3 h) was 96.2 IU/L and the BUN (3 h) was 19.2 mg/dL. The CRE (3 h) was 0.5 mg/dL, the Ca (3 h) was 10.7 mg/dL and the Cl (3 h) was 105.2 meq/L. It also gave a DBIL (3 h) of 0.01 mg/dL, a GLC (3 h) of 218.6 mg/dL and an IP (3 h) of 10.8 mg/dL. It also gave a K (3 h) of 5.2 meq/L, an LDH (3 h) of 209.4 IU/L and a Na (3 h) of 136 meq/L. It also gave a PL (3 h) of 101.8 mg/dL, an RALB (3 h) of 3.5 g/dL and a TBIL (3 h) of 0.5 mg/dL. It also gave a TC (3 h) of 59.4 mg/dL, a TG (3 h) of 20.2 mg/dL and a TP (3 h) of 5.5 g/dL. It also gave a gamma-GTP (3 h) of 1 IU/L, a TERMINAL_BW (6 h) of 195.6 g and an APTT (6 h) of 16.8 s. It also gave a Bas (6 h) of 0%, an Eos (6 h) of 0.8% and a Fbg (6 h) of 206.2 mg/dL. For the same compound, the Hb (6 h) was 14.2 g/dL, the Ht (6 h) was 42.4% and the Lym (6 h) was 71.8%. For the same compound, the MCH (6 h) was 22.1 pg, the MCHC (6 h) was 33.5% and the MCV (6 h) was 65.9 fL. For the same compound, the Mono (6 h) was 8.6%, the Neu (6 h) was 18.8% and the PT (6 h) was 12.2 s. It also gave a Plat (6 h) of 126 x10_4/uL, an RBC (6 h) of 644.2 x10_4/ul and a Ret (6 h) of 10.4%. The WBC (6 h) was 78.9 x10_2/uL, the KIDNEY_L (6 h) was 0.9 g and the KIDNEY_R (6 h) was 0.9 g. It also gave a KIDNEY_TOTAL (6 h) of 1.8 g, an LIVER (6 h) of 7.6 g and an A/G (6 h) of 2. The ALP (6 h) was 784.8 IU/L, the ALT (6 h) was 53.2 IU/L and the AST (6 h) was 101 IU/L. The BUN (6 h) was 22 mg/dL, the CRE (6 h) was 0.5 mg/dL and the Ca (6 h) was 10.9 mg/dL. It also gave a Cl (6 h) of 105.6 meq/L, a DBIL (6 h) of 0.012 mg/dL and a GLC (6 h) of 204 mg/dL. The IP (6 h) was 10.2 mg/dL, the K (6 h) was 5.4 meq/L and the LDH (6 h) was 205 IU/L. It also gave a Na (6 h) of 136.2 meq/L, a PL (6 h) of 124.6 mg/dL and an RALB (6 h) of 3.7 g/dL. It also gave a TBIL (6 h) of 0.5 mg/dL, a TC (6 h) of 77.6 mg/dL and a TG (6 h) of 28.2 mg/dL. The TP (6 h) was 5.6 g/dL, the gamma-GTP (6 h) was 1 IU/L and the TERMINAL_BW (9 h) was 191 g. The APTT (9 h) was 16.8 s, the Bas (9 h) was 0% and the Eos (9 h) was 0.8%. For the same compound, the Fbg (9 h) was 190.4 mg/dL, the Hb (9 h) was 13.7 g/dL and the Ht (9 h) was 40.9%. The Lym (9 h) was 63.6%, the MCH (9 h) was 21.5 pg and the MCHC (9 h) was 33.5%. For the same compound, the MCV (9 h) was 64 fL, the Mono (9 h) was 8.6% and the Neu (9 h) was 27.2%. It also gave a PT (9 h) of 12.4 s, a Plat (9 h) of 126 x10_4/uL and an RBC (9 h) of 638 x10_4/ul. For the same compound, the Ret (9 h) was 8.8%, the WBC (9 h) was 90.6 x10_2/uL and the KIDNEY_L (9 h) was 0.9 g. The KIDNEY_R (9 h) was 0.9 g, the KIDNEY_TOTAL (9 h) was 1.8 g and the LIVER (9 h) was 7.1 g. It also gave an A/G (9 h) of 2.3, an ALP (9 h) of 702.8 IU/L and an ALT (9 h) of 38.6 IU/L. It also gave an AST (9 h) of 101.8 IU/L, a BUN (9 h) of 19.2 mg/dL and a CRE (9 h) of 0.4 mg/dL. The Ca (9 h) was 10.4 mg/dL, the Cl (9 h) was 106 meq/L and the DBIL (9 h) was 0 mg/dL. For the same compound, the GLC (9 h) was 195 mg/dL, the IP (9 h) was 9.5 mg/dL and the K (9 h) was 4.9 meq/L. For the same compound, the LDH (9 h) was 134.8 IU/L, the Na (9 h) was 137 meq/L and the PL (9 h) was 115.6 mg/dL. The RALB (9 h) was 3.6 g/dL, the TBIL (9 h) was 0.5 mg/dL and the TC (9 h) was 71.2 mg/dL. The TG (9 h) was 15 mg/dL, the TP (9 h) was 5.2 g/dL and the gamma-GTP (9 h) was 2 IU/L. It also gave a TERMINAL_BW (24 h) of 198.4 g, an APTT (24 h) of 15.2 s and a Bas (24 h) of 0%. For the same compound, the Eos (24 h) was 0.8%, the Fbg (24 h) was 183 mg/dL and the Hb (24 h) was 13.2 g/dL. The Ht (24 h) was 39.6%, the Lym (24 h) was 79.2% and the MCH (24 h) was 21.7 pg. It also gave an MCHC (24 h) of 33.4%, an MCV (24 h) of 65 fL and a Mono (24 h) of 5.2%. The Neu (24 h) was 15%, the PT (24 h) was 11.7 s and the Plat (24 h) was 122 x10_4/uL. The RBC (24 h) was 609.6 x10_4/ul, the Ret (24 h) was 8.5% and the WBC (24 h) was 126.8 x10_2/uL. It also gave a KIDNEY_L (24 h) of 0.9 g, a KIDNEY_R (24 h) of 0.9 g and a KIDNEY_TOTAL (24 h) of 1.8 g. It also gave an LIVER (24 h) of 8.9 g, an A/G (24 h) of 2.3 and an ALP (24 h) of 756.4 IU/L. It also gave an ALT (24 h) of 34.8 IU/L, an AST (24 h) of 67.6 IU/L and a BUN (24 h) of 18 mg/dL. For the same compound, the CRE (24 h) was 0.4 mg/dL, the Ca (24 h) was 10.5 mg/dL and the Cl (24 h) was 106.4 meq/L. The DBIL (24 h) was 0.022 mg/dL, the GLC (24 h) was 189.2 mg/dL and the IP (24 h) was 7.2 mg/dL. For the same compound, the K (24 h) was 5.2 meq/L, the LDH (24 h) was 123 IU/L and the Na (24 h) was 138.6 meq/L. For the same compound, the PL (24 h) was 135.8 mg/dL, the RALB (24 h) was 3.7 g/dL and the TBIL (24 h) was 0.4 mg/dL. It also gave a TC (24 h) of 69.4 mg/dL, a TG (24 h) of 98 mg/dL and a TP (24 h) of 5.3 g/dL. It also gave a gamma-GTP (24 h) of 2 IU/L.
